# Measured values as given in patent publication US12440528B2, “Methods of treating ovarian cancer with hemp extract” (Ecofibre USA Inc., priority 2021, dated 2025).
# What was measured:
# [1] = test system: patient derived organoids (PD3D Cell Culture); assay: Calculated IC50 in PD3D cell culture of the patient derived organoids; type: cell-based, human
# [2] = cells without a printed unit; cited from earlier work
smiles,measurement,setting,value
"CCCCCOC(=O)Nc1nc(=O)n([C@@H]2O[C@H](C)[C@@H](O)[C@H]2O)cc1F [Capecitabine (5-FU), Capecitabine]",Calculated IC50 PD3D Cell Culture,[1],Not Reached
same,Cmax,[2],2220 nM
